# pEC50: −log10 of the molar value.
# Assays:
# T. b. brucei = experiment: In vitro drug sensitivity assay, bloodstream-form T. b. brucei; assay type: cell-based; settings: Trypanosoma brucei, n = 12
# Description: 1.1 In vitro drug sensitivity assays - Trypanosoma brucei brucei
# Drug sensitivity assays were carried out with bloodstream-form (BSF) T. b. brucei ‘single marker’ S427 cells grown at 37°C with 5% CO2 in HMI-9T medium,1 as previously described.2 1.2 In vitro drug sensitivity assays - Trypanosoma congolense
# EC50 values for test compounds against T. congolense (IL3000 strain) were conducted as previously described3 with minor modifications.4 Briefly, trypanosome cell densities were determined using a CASY cell counter (Schärfe) and diluted to a seeding density of 2 x 105 trypanosomes/mL. […] Absorbance was read using a SpectraMax (Gemini XS) fluorescence reader at an excitation wavelength of 536 nm and an emission wavelength of 588 nm. EC50 values were determined using SOFTmax Pro 5.2 analysis software. […]
# Since T. vivax cannot be cultured axenically, BSF trypanosomes were harvested from an infected mouse with high parasitemia via cardiac puncture and used directly in ex vivo assays. EC50 values were determined against T, vivax (STIB 719/ ILRAD 560) as previously described3, with minor modifications. Briefly, cell densities were determined using a Neubauer chamber and then diluted to a seeding density of 4 x 105 trypanosomes / mL. […] Absorbance was read using a SpectraMax (Gemini XS) fluorescence reader at an excitation wavelength of 536 nm and an emission wavelength of 588 nm. […]
# [1] = Comparative cattle PK, IM compared to SC (NorthWest Biopharm); assay type: in vivo; settings: Aberdeen Angus crossbreed and Limousin crossbreed, bovine, blood, 5 mg/kg free base
# Description: Kolliphor EL, N-methyl pyrrolidone, 2-pyrrolidone and 11% water suitable for injection) […]
# Comparative cattle PK (Northwestern Biopharm)
# The pharmacokinetics for compound 2 when dosed as free base in the best tolerated formulation: […]
# Kolliphor EL, N-methyl pyrrolidone, 2-pyrrolidone and 11% water at 5 mg/kg was assessed, IM
# compared to SC. Bioanalysis of blood
# samples was conducted at the University of Dundee. […]
# [2] = test system: T. brucei CRK12 (Tb927.11.12310) edited parasites; experiment: Sensitivity of CRISPR-Cas9-edited CRK12 T. brucei compared to wild-type; assay type: cell-based, Trypanosoma brucei
# Text: Three unbiased and independent approaches converged to identify CRK12 as the likely target of compound 2. Next, we used CRISPR-Cas9 precision base editing to interrogate the role of CRK12-related mutations in resistance.[16] A codon-targeted saturation mutagenesis strategy was used to investigate mutations that could support resistance to compound 2 at positions 482 or 492. This was achieved using repair templates randomized (NNN) in these specific positions. […] These edited parasites were 133-fold less sensitive to compound 2 compared to wild-type parasites. In contrast, several different amino acids (Ile, Gln, Met, and Val) were tolerated in position 492. Each mutation conferred differing levels of resistance to compound 2, for instance, parasites bearing a Gly492Val edit were eightfold more tolerant to the compound than wild-type cells, while a Gly492Gln mutation led to 32-fold resistance (Figure 4B); parasites bearing a Gly492Ile or a Gly492Met edit behaved similarly to parasites bearing a Gly492Gln edit. […] This is most likely explained by the pronounced growth defect associated with all three of our resistant clones (R1–3) that harbor this specific mutation. […]
# overall quality score (QUAL) was >100. Artemis13 was used to analyse chromosome and gene copy number variation (CNV), as well as visualisation of SNPs.
# 4.3 RIT-seq screening, Illumina sequencing and analysis
# The RIT-seq library screening was performed as described previously.14 The RNAi library was maintained with blasticidin (1 µg ml-1) and phleomycin (1 µg ml-1) at a minimum of 2 x 10^7 cells. […]
# Reads were mapped to the T. brucei 927 reference genome (v39; TriTrypDB [http://tritrypdb.org/]) using Bowtie 2 software,10 with the following parameter: --very-sensitive-local. Following manipulation with SAMtools11 the alignment files were searched with a custom script to identify reads with the following barcode: GCCTCGCGA.14 The total and barcoded reads were then quantified using the Artemis genome browser.15 […]
Compound,pEC50 (T. b. brucei),AUC ([1]; IM) [ng·h/mL],Cmax ([1]; IM) [ng/mL],Tmax ([1]; IM) [h],AUC ([1]; SC) [ng·h/mL],Cmax ([1]; SC) [ng/mL],Tmax ([1]; SC) [h],Resistance compared to wild-type ([2]; CRK12 Gly492Gln edit) [fold],Tolerance compared to wild-type ([2]; CRK12 Gly492Val edit),Loss of sensitivity compared to wild-type ([2]; CRK12 Leu482Phe edit) [fold]
"CC(C)CS(=O)(=O)N[C@H]1CC[C@H](Nc2nc(N)c(C(=O)c3c(F)cccc3F)s2)CC1 [Compound 1, N-((trans)-4-((4-Amino-5-(2,6-difluorobenzoyl)thiazol-2-yl)amino)cyclohexyl)-2-methylpropane-1-sulfonamide]",8.89,,,,,,,,,
"CC(C)CS(=O)(=O)N[C@H]1CC[C@H](Nc2nc(N)c(C(=O)c3c(F)cc(CN(C)C)cc3F)s2)CC1 [Compound 2, N-(trans)-[4-[[4-Amino-5-[4-(dimethylaminomethyl)-2,6-difluoro-benzoyl]thiazol-2-yl]amino]cyclohexyl]-2-methyl-propane-1-sulfonamide]",,3170,360,0.5,967,86,3,32,eightfold,133
